From publication PMC2734971 (Pharmaceutical research, 2009)
Where no end group is shown, it is not given here.

Tests used:
kidney = assay: T1-weighted coronal MR imaging, kidney signal; assay type: in vivo, SCID mice; details: up to 24 h; 0.03 mmol-Gd/kg i.v.; 9.4 tesla
[1] = tested on: MDA-MB-231 tumor xenografts; assay: In vivo MR T1-mapping of MDA-MB-231 tumor-bearing SCID mice; set-up: species or system SCID mice (human breast cancer xenograft)
[2] = tested on: solid tumors / αVβ3 integrins; details: prostate tumors; cited from earlier work

| Substance | signal enhancement in kidney (kidney) | T1 at tumor site, targetable vs non-targetable, other time points ([1]; 10 min, 30 min, 1, 6, 24 h, 0.03 mmol-Gd/kg i.v.) | mean T1 value at tumor site, 2 h post-injection ([1]; 2 h after i.v. injection, 0.03 mmol-Gd/kg, 9.4 tesla, 4 mice/group, mean±SD) | enhancement of tumor accumulation vs copolymers without targeting peptide [2] |
| --- | --- | --- | --- | --- |
| P-RGDfK-Gd: HPMA copolymer with Gd-DOTA and RGDfK side chains; Mw 43,000; 0.428 mmol/g RGDfK, 0.14 mmol/g Gd | signal enhancement in kidney up to 24 h | no significant difference | 1950 ± 189.8 ms | – |
| KACDCRGDCFCG (also: bicyclic or more (positions not given here)) [RGD4C] | – | – | – | four to fivefold enhancement |
